The source of these data is ChEMBL document CHEMBL1201862, “PubChem BioAssay data set” (2004).

Active and inactive are the calls of the source. Cut-off read from the data, not from the text of the source, for most assays here: active = IC50 of 10 µM or less and inactive = more.

For experiment [1], the target named is Eukaryotic translation initiation factor 4E (Mus musculus, UniProt P63073). In words: eIF4E–eIF4G protein interaction inhibitors, dose response, biochemical, TR-FRET (AID 855).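 Note: potency for disrupting eIF4E binding to eIF4GI seen as loss of FRET.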 The format is functional. (In general: TR-FRET usually uses a lanthanide donor and a delayed reading to cut background.)
Eukaryotic translation initiation factor 4E, sequence (P63073 whole entry): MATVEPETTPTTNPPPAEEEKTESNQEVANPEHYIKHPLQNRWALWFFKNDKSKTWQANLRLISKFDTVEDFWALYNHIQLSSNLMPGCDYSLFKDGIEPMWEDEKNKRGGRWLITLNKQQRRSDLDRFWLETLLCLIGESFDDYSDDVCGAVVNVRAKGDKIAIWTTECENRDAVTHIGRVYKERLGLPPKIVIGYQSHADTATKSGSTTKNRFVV
For experiment [2], the target named is Sphingosine 1-phosphate receptor 1 (Homo sapiens, UniProt P21453). The format is functional.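 Note: Tango beta-arrestin reporter U2OS cells stimulated with S1P near its EC80; inhibitor potency meaning antagonism of receptor activation by the natural agonist.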
Sphingosine 1-phosphate receptor 1, sequence (P21453 whole entry): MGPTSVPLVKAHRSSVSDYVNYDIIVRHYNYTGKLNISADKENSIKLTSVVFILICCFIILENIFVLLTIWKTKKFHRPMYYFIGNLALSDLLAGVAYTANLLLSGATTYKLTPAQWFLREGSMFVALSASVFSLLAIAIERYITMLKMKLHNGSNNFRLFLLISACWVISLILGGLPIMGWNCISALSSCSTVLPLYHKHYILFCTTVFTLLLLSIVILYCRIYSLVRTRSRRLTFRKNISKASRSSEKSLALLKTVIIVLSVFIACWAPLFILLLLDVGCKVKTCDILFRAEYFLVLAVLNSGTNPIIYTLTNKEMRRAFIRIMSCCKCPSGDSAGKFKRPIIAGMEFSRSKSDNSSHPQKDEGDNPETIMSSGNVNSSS
Experiment [3] deals with Photoreceptor-specific nuclear receptor (Homo sapiens, UniProt Q9Y5X4). The format is functional, cell-based.
Photoreceptor-specific nuclear receptor, sequence (Q9Y5X4 whole entry): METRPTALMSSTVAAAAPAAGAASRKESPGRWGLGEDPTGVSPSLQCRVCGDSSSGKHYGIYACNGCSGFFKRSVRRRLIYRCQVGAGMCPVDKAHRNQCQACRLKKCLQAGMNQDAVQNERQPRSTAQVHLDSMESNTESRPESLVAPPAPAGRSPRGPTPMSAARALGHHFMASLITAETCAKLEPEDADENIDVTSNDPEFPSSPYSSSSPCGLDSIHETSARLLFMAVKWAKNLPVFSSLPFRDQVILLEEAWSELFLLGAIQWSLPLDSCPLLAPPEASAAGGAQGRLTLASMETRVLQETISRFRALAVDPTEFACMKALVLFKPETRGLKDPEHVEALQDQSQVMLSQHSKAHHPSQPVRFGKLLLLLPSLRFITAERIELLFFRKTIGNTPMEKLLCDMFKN

By IC50 is commonly meant the concentration that inhibits the measured activity by half. Turning to `CCCCCCCCCCCCCCCCn1cc[n+](C)c1`, in experiment [1], the IC50 is 12.9 µM (active).
Take `O=C(Nc1ccccc1Cl)/C(Cl)=C(\Cl)[S+]([O-])c1ccccc1` (stereo not drawn): the IC50 in experiment [2] was 10.3 µM (not active); in experiment [3] it was 2.92 µM (active).
